Source: US11028127B2, “Peptides capable of reactivating p53 mutants” (Yeda Research and Development Co. Ltd., priority 2013, dated 2021)
Where no end group is shown, it is not given here. [ ]: non-standard residue; d: D form. The star is where a group is joined. Myristoyl = CCCCCCCCCCCCCC(=O)*

System: Mut-p53
Assay: Total activity score over combined assays (Table 8)
Set-up: scale not given here
Details: for Activity Score: Table 10 summary of activity of the peptides tested; for Conformation, activity score: the 14 score columns c4-c17 stand under the heads Conformation, DNA binding, Viability, PCR; for AS (Activity Score): total score of Table 7

Substance: pCAP245 (NHITNGGEEDSDCSSRRRRL)
- Activity Score: 8

Substance: pCAP282 (Myristoyl-RRPVAPDLRHTIHIPPER)
- PCR, activity score (Table 8, head span not shown): 3
- Conformation, activity score (Table 8): 4
- Activity Score: 43

Substance: pCAP63 (HNHHHSQHTPQH)
- Activity Score: 9
- AS (Activity Score): 9

Substance: pCAP37 (KLQVPIK)
- Activity Score: 6
- AS (Activity Score): 6

Substance: pCAP69 (SILTLSRRRRRRRRRR)
- Activity Score: 0
- AS (Activity Score): 0

Substance: pCAP152 (YRRLLIGMRRRRRRRRRRRR)
- Activity Score: 11
- AS (Activity Score): 11

Substance: pCAP147 (ATQHHYIKRRRRRRRRRRR)
- Activity Score: 10
- AS (Activity Score): 10

Substance: pCAP123 (GLCRIIL)
- Activity Score: 3
- AS (Activity Score): 3

Substance: pCAP54 (IRGRIIR)
- Activity Score: 26
- AS (Activity Score): 26

Substance: pCAP310 (RLRCLLLLIGRVGRR)
- Activity Score: 4

Substance: pCAP84 (GRRRFCM)
- Activity Score: 0
- AS (Activity Score): 0

Substance: pCAP144 (SFILFIRRGRLGRRRRRRRRR)
- Activity Score: 49
- AS (Activity Score): 49

Substance: pCAP312 (RRPRIPDYIL)
- Activity Score: 3

Substance: pCAP100 (FPGHTIH)
- Activity Score: 19
- AS (Activity Score): 19

Substance: pCAP300 (RIRRDPDSPLPHPE)
- Activity Score: 0

Substance: pCAP72 (SCRCRLRRRRRRRRRR)
- Activity Score: 5
- AS (Activity Score): 5

Substance: pCAP253 (TGKTFVKRHLTEFEKKYR)
- Activity Score: 0

Substance: pCAP90 (SCRCRLR)
- Activity Score: 12
- AS (Activity Score): 12

Substance: pCAP121 (LTLMRLRIIG)
- Activity Score: 5
- AS (Activity Score): 5

Substance: pCAP262 (ESKTGHKSEEQRLRRYR)
- Activity Score: 0

Substance: pCAP167 (FILIR)
- Activity Score: 5
- AS (Activity Score): 5

Substance: pCAP299 (ILQPDFLIRPE)
- Activity Score: 2

Substance: pCAP106 (LIRRCSLQR)
- Activity Score: 8
- AS (Activity Score): 8

Substance: pCAP211 (PDSEPPRMELRRR)
- Activity Score: 0

Substance: pCAP125 (ELGLHRH)
- Activity Score: 0
- AS (Activity Score): 0

Substance: pCAP108 (IIRGNFLIGGRL)
- Activity Score: 17
- AS (Activity Score): 17

Substance: pCAP321 (RNIIIRDFIHFSHIDR)
- Activity Score: 0

Substance: pCAP105 (SRIVLGW)
- Activity Score: 5
- AS (Activity Score): 5

Substance: pCAP175 (DSPR)
- Activity Score: 0
- AS (Activity Score): 0

Substance: pCAP87 (HANLHHT)
- Activity Score: 37
- AS (Activity Score): 37

Substance: pCAP156 (VPHIHEFTRRRRRRRR)
- Activity Score: 0
- AS (Activity Score): 0

Substance: pCAP15 (THFSHHLKH)
- Activity Score: 12
- AS (Activity Score): 12

Substance: pCAP316 (Myristoyl-DIHTIHLPDTHRR)
- Activity Score: 7

Substance: pCAP151 (CILRLWWRRRRRRRRRRR)
- Activity Score: 33
- AS (Activity Score): 33

Substance: pCAP83 (HSSHHHPVHSWN)
- Activity Score: 25
- AS (Activity Score): 25

Substance: pCAP290 (RYKEPRITPRE)
- Activity Score: 6

Substance: pCAP43 (TDSHSHH)
- Activity Score: 15
- AS (Activity Score): 15

Substance: pCAP14 (HHFSHHWKT)
- Activity Score: 9
- AS (Activity Score): 9

Substance: pCAP293 (RRIRIDPQHD)
- Activity Score: 2

Substance: pCAP239 (REGFYGPWHEQRRR)
- Activity Score: 4

Substance: pCAP323 (Myristoyl-DLHTIHIPRDRR)
- Activity Score: 0

Substance: pCAP30 (TIHPSIS)
- Activity Score: 16
- AS (Activity Score): 16

Substance: pCAP240 (TEQHHYIPHRRR)
- Activity Score: 3

Substance: pCAP163 (LTLS)
- Activity Score: 4
- AS (Activity Score): 4

Substance: pCAP38 (WTLSNYL)
- Activity Score: 2
- AS (Activity Score): 2

Substance: pCAP283 (RRPADQISYLHPPER)
- Activity Score: 0

Substance: pCAP236 (RRRSTNTFLGEDFDQ)
- Activity Score: 0

Substance: pCAP159 ([dR][dR][dR][dR][dR][dR][dR][dR]G[dL][dR]G[dR][dR][dI][dF][dL][dI][dF][dS])
- Activity Score: 53
- AS (Activity Score): 53

Substance: pCAP277 (DQPYPHRRIR)
- Activity Score: 3

Substance: pCAP97 (WNHHHSTPHPAH)
- Activity Score: 47
- AS (Activity Score): 47

Substance: pCAP272 (RRPHNLHHD)
- Activity Score: 0

Substance: pCAP224 (RRKSEPHSLSGGYQTGAD)
- Activity Score: 2

Substance: pCAP280 (Myristoyl-RYRRLILEIWRR)
- Activity Score: 6

Substance: pCAP268 (TPSYGHTPSHHRRR)
- Conformation, activity score (Table 8): 3
- Activity Score: 12

Substance: pCAP96 (GTVDHHA)
- Activity Score: 0
- AS (Activity Score): 0

Substance: pCAP80 (HLHKHHYKDSRM)
- Activity Score: 9
- AS (Activity Score): 9

Substance: pCAP62 (YELPHHAYPA)
- Activity Score: 10
- AS (Activity Score): 10
